# Source: patent US7875653B2, “Emulsion comprising 1,2-alkanediols and polar oil components” (Beiersdorf AG, priority 2005, dated 2011)
# Experiment: Polarity: interfacial tension towards water
# Type: physicochemical
# Excerpt: Oils and fats differ from one another in their polarity, which is difficult to define. It has already been proposed to adopt the interfacial tension towards water as a measure of the polarity index of an oil or of an oil phase. The lower the interfacial tension between this oil phase and water, the greater the polarity of the oil phase in question. According to the present invention, the interfacial tension is regarded as one possible measure of the polarity of a given oil component.
# The interfacial tension is the force which acts on an imaginary line one meter in length at the interface between two phases. The physical unit for this interfacial tension is conventionally calculated from the force/length relationship and is usually expressed in mN/m (millinewtons divided by meters). It has a positive sign if it tends to reduce the interface. In the converse case, it has a negative sign. For the purposes of the present invention, lipids are regarded as polar if their interfacial tension towards water is less than about 20 mN/m, and as nonpolar if their interfacial tension towards water is more than about 30 mN/m. Lipids with an interfacial tension towards water between about 20 and about 30 mN/m are generally referred to as moderately polar.
# [1] = polar lipids, less than about 20 mN/m
# [2] = moderately polar lipids, between about 20 and about 30 mN/m
Molecule,Polarity (interfacial tension towards water) [1] [mN/m],Polarity (interfacial tension towards water) [2] [mN/m]
"CCCCOC(=O)CCCCC(=O)OCCCC [Cetiol B, Dibutyl adipate]",14.3,–
"CC(C)CCCCCCCOC(=O)C(C)(C)C [DUB VCI 10, Isodecyl neopentanoate]",–,29.9
"CCCCC(CC)C(=O)OCCC(C)CC(C)(C)C (stereo not shown) [Dermol 98, 2-Ethylhexanoic acid 3,5,5 trimethyl ester]",–,26.2
"CCCCCCCC(=O)OCCCCCCCC(C)C [Dermol 108, Isodecyl octanoate]",–,29.6
"CC(C)CCCCCCCOC(=O)CC(C)CC(C)(C)C (stereo not shown) [Dermol 109, Isodecyl 3,5,5-trimethyl hexanoate]",–,29.1
"CCCCCCCCCC(=O)OCCCC(C)C [Dermol IHD, Isohexyl decanoate]",–,29.7
CCCCCCOCCCCCC [Dihexyl ether],–,29.2
"CCCCCCCCCCC(CO)CCCCCCCC (stereo not shown) [Eutanol G, Octyldodecanol]",–,24.8
"CCCCCCC(CCCC)C(=O)O (stereo not shown) [Isocarb 12, Butyl octanoic acid]",–,22.1
CCCCCCCCCCCCCCCCCC(=O)OC(C)C [Isopropyl stearate],–,21.9
"CCCCCCCCCCCCCC(=O)OCC(CCCCCCCC)CCCCCCCCCC (stereo not shown) [M.O.D., Octyldodecyl myristate]",–,22.1
"CCCCCCCCCCCCCCCCCCOC(=O)CCCCCC [Tegosoft SH, Stearyl heptanoate]",17.8,–
"CCCCCCCC(=O)OCC(COC(=O)CCCCCCC)OC(=O)CCCCCCC [Trivent OCG, Tricaprylin]",–,20.2
"Isotridecyl 3,5,5 trimethyl hexanona-noate [Dermol 139]",–,24.5
PEG 2 Diethylene hexanoate [Dermol 488],10.1,–
Triisostearin [Prisorine 2041 GTIS],2.4,–
